pIC50: −log10 of the molar value. Like-named read-outs stand apart in the source and are kept apart here.

In this test the target is JAK3 enzyme (Homo sapiens (Human), UniProt P52333). Put plainly: JAK Caliper Enzyme Assay at 4 μM or 1 mM ATP. It counts as biochemical.
Setting [1] is: read-out: JAK3 (4 μM ATP) IC50, 4 μM ATP.
The mark [2] stands for this setting: read-out: JAK3 (1 mM ATP) IC50, 1 mM ATP.

Chain of JAK3 enzyme (P52333 whole entry, species assumed): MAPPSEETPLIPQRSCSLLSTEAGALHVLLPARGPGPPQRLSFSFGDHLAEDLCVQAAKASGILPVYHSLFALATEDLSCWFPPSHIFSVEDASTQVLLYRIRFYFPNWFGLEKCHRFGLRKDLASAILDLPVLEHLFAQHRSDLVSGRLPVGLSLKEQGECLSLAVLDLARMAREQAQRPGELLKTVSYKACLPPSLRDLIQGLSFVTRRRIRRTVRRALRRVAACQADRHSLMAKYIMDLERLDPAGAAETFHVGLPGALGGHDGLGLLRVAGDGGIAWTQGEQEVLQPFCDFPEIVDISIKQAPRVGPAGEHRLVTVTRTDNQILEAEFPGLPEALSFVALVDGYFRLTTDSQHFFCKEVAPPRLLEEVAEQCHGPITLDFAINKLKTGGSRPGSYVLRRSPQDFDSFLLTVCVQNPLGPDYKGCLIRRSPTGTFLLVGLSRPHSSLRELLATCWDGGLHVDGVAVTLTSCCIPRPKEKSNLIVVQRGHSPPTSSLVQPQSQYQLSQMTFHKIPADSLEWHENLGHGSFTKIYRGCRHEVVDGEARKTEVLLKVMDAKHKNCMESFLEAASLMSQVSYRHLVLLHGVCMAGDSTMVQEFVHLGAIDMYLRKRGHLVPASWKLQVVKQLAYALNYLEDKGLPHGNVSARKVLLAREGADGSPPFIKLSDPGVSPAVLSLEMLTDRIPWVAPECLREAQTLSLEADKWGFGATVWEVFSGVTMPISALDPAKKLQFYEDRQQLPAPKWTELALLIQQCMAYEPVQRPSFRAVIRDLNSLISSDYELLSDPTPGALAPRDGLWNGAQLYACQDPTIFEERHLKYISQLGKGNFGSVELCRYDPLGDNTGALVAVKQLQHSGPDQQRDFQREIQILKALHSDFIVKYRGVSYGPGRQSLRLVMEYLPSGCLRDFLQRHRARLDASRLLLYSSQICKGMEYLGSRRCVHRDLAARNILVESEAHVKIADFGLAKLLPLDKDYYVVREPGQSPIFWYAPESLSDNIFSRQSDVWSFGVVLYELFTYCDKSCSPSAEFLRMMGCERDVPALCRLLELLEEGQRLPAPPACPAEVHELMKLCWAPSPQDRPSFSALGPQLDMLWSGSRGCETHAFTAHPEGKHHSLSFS

The pIC50 is −log10 of the IC50, conventionally taken in molar units. For `C=CC(=O)N1C[C@@H](Nc2ncnc3[nH]ccc23)CC[C@@H]1CC` [Example 125, 1-[(2S,5S)-2-Ethyl-5-(7H-pyrrolo[2,3-d]pyrimidin-4-ylamino)piperidin-1-yl]prop-2-en-1-one], the pIC50 reads like this: under setting [1], 5.85; under setting [2], < 5.00.

Consider `C=CC(=O)N1C[C@@H](C)N(c2cnc3[nH]cc(C(=O)NC(C)C)c3n2)[C@@H](C)C1` [Example 328, 2-[(2R,6S)-4-acryloyl-2,6-dimethylpiperazin-1-yl]-N-(propan-2-yl)-5H-pyrrolo[2,3-b]pyrazine-7-carboxamide], for which the pIC50 is, setting by setting: under setting [1], 8.80; under setting [2], 6.65.

Consider `C=CC(=O)N1C[C@@H](C#N)C[C@@H](Nc2ncnc3[nH]ccc23)C1` [Example 58, (3S,5R)-5-((7H-pyrrolo[2,3-d]pyrimidin-4-yl)amino)-1-acryloylpiperidine-3-carbonitrile], for which the pIC50 under setting [1] is 8.60 and the pIC50 under setting [2] was 6.44.

For `C=CC(=O)N1CCC(Nc2cnc3[nH]cc(-c4cncnc4)c3n2)CC1` [Example 202, 1-(4-{[7-(pyrimidin-5-yl)-5H-pyrrolo[2,3-b]pyrazin-2-yl]amino}piperidin-1-yl)prop-2-en-1-one], the pIC50 was 9.05 under setting [1] and 7.00 under setting [2].

As to `C=CC(=O)N1C[C@H](Nc2ncnc3[nH]ccc23)CC[C@@H]1CC` (single isomer, unassigned) [Example 9], the pIC50 by setting is: under setting [1], 9.40; under setting [2], 7.27.

For `C=CC(=O)N1CCC[C@@H](Nc2ncnc3[nH]cc(Cc4ccc(O)cc4)c23)C1` [Example 137, 1-[(3R)-3-{[5-(4-Hydroxybenzyl)-7H-pyrrolo[2,3-d]pyrimidin-4-yl]amino}piperidin-1-yl]prop-2-en-1-one], the pIC50 under setting [1] is 9.52.

As to `C=CC(=O)N1CCC(Nc2cnc3[nH]cc(C(=O)N[C@@H](C)CC)c3n2)CC1` [Example 285, 2-[(1-acryloylpiperidin-4-yl)amino]-N-[(2S)-butan-2-yl]-5H-pyrrolo[2,3-b]pyrazine-7-carboxamide], the pIC50 runs as follows: under setting [1], 9.52; under setting [2], 8.07.

In the case of `C=CC(=O)N[C@H]1C[C@H](Nc2cnc3[nH]cc(C(=O)NC(C)C)c3n2)C1` [Example 198, 2-{[trans-3-(acryloylamino)cyclobutyl]amino}-N-(propan-2-yl)-5H-pyrrolo[2,3-b]pyrazine-7-carboxamide], the pIC50 was 9.00 under setting [1] and 7.11 under setting [2].

Take `C=CC(=O)N1CCC[C@@H](N(C)c2ncnc3[nH]cc(CCOC)c23)C1` [Example 136, 1-[(3R)-3-{[5-(2-Methoxyethyl)-7H-pyrrolo[2,3-d]pyrimidin-4-yl](methyl)amino]piper-idin-1-yl]prop-2-en-1-one]: under setting [1], the pIC50 is 6.62.

Take `C=CC(=O)N1CC[C@@H](Nc2cnc3[nH]cc(C(=O)NC(C)C)c3n2)[C@H](F)C1` [Example 291, 2-{[(3R,4R)-1-acryloyl-3-fluoropiperidin-4-yl]amino}-N-(propan-2-yl)-5H-pyrrolo[2,3-b]pyrazine-7-carboxamide]: the pIC50 by setting is: under setting [1], 9.70; under setting [2], 8.04.

Regarding `CS/C=C/C(=O)N1CCC[C@@H](Nc2ncnc3[nH]ccc23)C1` [Example 98, (2E)-3-(methylsulfanyl)-1-[(3R)-3-(7H-pyrrolo[2,3-d]pyrimidin-4-ylamino)piperidin-1-yl]prop-2-en-1-one], the negative-log IC50 (pIC50) was 5.58 under setting [1] and < 5.00 under setting [2].

For `C=CC(=O)N1CCC[C@@H](Nc2ncnc3[nH]cc(-c4cnc(N5CCOCC5)nc4)c23)C1` [Example 35, 1-[(3R)-3-({5-[2-(morpholin-4-yl)pyrimidin-5-yl]-7H-pyrrolo[2,3-d]pyrimidin-4-yl}amino)piperidin-1-yl]prop-2-en-1-one], the pIC50 under setting [1] was 7.08.

For the compound `C=CC(=O)N1CCC(Nc2cnc3[nH]ccc3n2)CC1` [Example 176, 1-[4-(5H-pyrrolo[2,3-b]pyrazin-2-ylamino)piperidin-1-yl]prop-2-en-1-one], the pIC50 under setting [1] is 8.14 and the negative logarithm of the IC50 (pIC50) under setting [2] is 6.04.

`C=CC(=O)N1CCN(c2cnc3[nH]cc(C(=O)NC(C)C)c3n2)C[C@H]1C(C)C` [Example 294, 2-[(3R)-4-acryloyl-3-(propan-2-yl)piperazin-1-yl]-N-(propan-2-yl)-5H-pyrrolo[2,3-b]pyrazine-7-carboxamide]: the negative-log IC50 (pIC50) was 8.72 under setting [1] and 6.63 under setting [2].

On to `C=CC(=O)N1CCC(Nc2cnc3[nH]cc(C(=O)NCC4(O)CCCC(F)(F)C4)c3n2)CC1` (stereo not drawn) [Example 249, 2-[(1-acryloylpiperidin-4-yl)amino]-N-[(3,3-difluoro-1-hydroxycyclohexyl)methyl]-5H-pyrrolo[2,3-b]pyrazine-7-carboxamide], for which the pIC50 under setting [1] was 9.22 and the negative logarithm of the IC50 (pIC50) under setting [2] was 7.33.

Regarding `C=CC(=O)N1CCN(c2cnc3[nH]cc(C(=O)NC(C)C)c3n2)C[C@@H]1C` [Example 295, 2-[(3S)-4-acryloyl-3-methylpiperazin-1-yl]-N-(propan-2-yl)-5H-pyrrolo[2,3-b]pyrazine-7-carboxamide], the pIC50 under setting [1] was 8.96 and the pIC50 under setting [2] was 7.05.

Regarding `C=CC(=O)N1CCCN(c2cnc3[nH]cc(C(=O)NC(C)C)c3n2)CC1` [Example 185, 2-(4-acryloyl-1,4-diazepan-1-yl)-N-(propan-2-yl)-5H-pyrrolo[2,3-b]pyrazine-7-carboxamide], the pIC50 reads like this: under setting [1], 7.69; under setting [2], 5.84.

In the case of `C=CC(=O)N1CC2(C1)CN(c1cnc3[nH]ccc3n1)C2` [Example 175, 1-[6-(5H-pyrrolo[2,3-b]pyrazin-2-yl)-2,6-diazaspiro[3.3]hept-2-yl]prop-2-en-1-one], the negative-log IC50 (pIC50) under setting [1] was 5.79.

As for `C=CC(=O)N1CCC[C@@H](Nc2nc(Nc3cccnc3)nc3[nH]ccc23)C1` [Example 63, 1-[(3R)-3-{[2-(Pyridin-3-ylamino)-7H-pyrrolo[2,3-d]pyrimidin-4-yl]amino}piperidin-1-yl]prop-2-en-1-one], the pIC50 was 8.04 under setting [1] and 6.17 under setting [2].

Regarding `C=CC(=O)N1CCC[C@@H](Nc2ncnc3[nH]cc(-c4cncc(F)c4)c23)C1` [Example 23, 1-[(3R)-3-{[5-(5-fluoropyridin-3-yl)-7H-pyrrolo[2,3-d]pyrimidin-4-yl]amino}piperidin-1-yl]prop-2-en-1-one], the pIC50 was 8.89 under setting [1] and 7.06 under setting [2].

Take `C/C=C/C(=O)N1CCC[C@@H](Nc2ncnc3[nH]cc(CCOC)c23)C1` [Example 109, (2E)-1-[(3R)-3-{[5-(2-methoxyethyl)-7H-pyrrolo[2,3-d]pyrimidin-4-yl]amino}pipendin-1-yl]but-2-en-1-one]: the pIC50 under setting [1] is 5.55.

On to `C=CC(=O)N1CCC(Oc2cnc3[nH]cc(-c4ccnc(F)c4)c3n2)CC1` [Example 222, 1-(4-{[7-(2-fluoropyridin-4-yl)-5H-pyrrolo[2,3-b]pyrazin-2-yl]oxy}piperidin-1-yl)prop-2-en-1-one], for which the pIC50 by setting is: under setting [1], 8.96; under setting [2], 6.90.

As to `C/C=C/C(=O)N1CCC[C@@H](Nc2ncnc3[nH]cc(Cc4ccc(O)cc4)c23)C1` [Example 138, (2E)-1-[(3R)-3-{[5-(4-Hydroxybenzyl)-7H-pyrrolo[2,3-d]pyrimidin-4-yl]amino}piperidin-1-yl]but-2-en-1-one], the pIC50 under setting [1] was 6.96.

On to `C=CC(=O)N1CCC[C@@H](Nc2ncnc3[nH]cc(C#N)c23)C1` [Example 45, 4-{[(3R)-1-acryloylpiperidin-3-yl]amino}-7H-pyrrolo[2,3-d]pyrimidine-5-carbonitrile], for which the pIC50 runs as follows: under setting [1], 9.00; under setting [2], 6.77.

For the origin of these results see patent publication US20250134869A1, “Pyrrolo[2,3-d]pyrimidinyl, Pyrrolo[2,3-b]pyrazinyl and Pyrrolo[2,3-d]pyridinyl Acryla-mides” (Pfizer Inc, priority 2021, published 2025).
